Experimental data reported in US7629373B2, “Mitotic kinesin inhibitors” (Merck & Co. Inc., priority 2005, dated 2009).

Biological target: T1, human KSP motor domain (KSP(367H)) (Homo sapiens, UniProt P52732)
T1 construct: were used to amplify the motor domain and the neck linker region; made in house; host or cells: E. coli BL21 (DE3), pRSETa
T1 sequence (P52732 18-359 limits assumed): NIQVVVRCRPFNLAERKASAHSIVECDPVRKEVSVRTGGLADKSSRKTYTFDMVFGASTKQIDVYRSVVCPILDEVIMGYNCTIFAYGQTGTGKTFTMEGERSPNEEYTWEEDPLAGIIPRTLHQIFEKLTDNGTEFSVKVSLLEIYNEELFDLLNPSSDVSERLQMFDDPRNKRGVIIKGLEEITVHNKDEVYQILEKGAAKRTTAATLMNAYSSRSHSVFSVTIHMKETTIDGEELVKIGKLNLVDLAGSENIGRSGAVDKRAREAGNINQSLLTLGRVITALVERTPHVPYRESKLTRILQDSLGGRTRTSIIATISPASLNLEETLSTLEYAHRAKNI
Assay: Kinesin ATPase In Vitro Assay
Assay type: biochemical
Conditions: kinesin motor domain with microtubules, 1 mM ATP, 23° C.
Excerpt: I. Kinesin ATPase In Vitro Assay
Cloning and Expression of Human Poly-Histidine Tagged KSP Motor Domain (KSP(367H))
Plasmids for the expression of the human KSP motor domain construct were cloned by PCR using a pBluescript full length human KSP construct (Blangy et al., Cell, vol. 83, pp 1159-1169, 1995) as a template. The N-terminal primer 5′-[…] (SEQ. ID. NO.: 1) and the C-terminal primer 5′-[…] […] (SEQ. ID. NO.: 2) were used to amplify the motor domain and the neck linker region. The PCR products were digested with AseI and XhoI, ligated into the NdeI/XhoI digestion product of pRSETa (Invitrogen) and transformed into E. coli BL21 (DE3).
Cells were grown at 37° C. to an OD600 of 0.5. […]
The kinesin motor domain is incubated with microtubules, 1 mM ATP (1:1 MgCl2: Na-ATP), and compound at 23° C. in buffer containing 80 mM K-HEPES (pH 7.0), 1 mM EGTA, 1 mM DTT, 1 mM MgCl2, and 50 mM KCl. […] Free phosphate from the ATP hydrolysis reaction is measured via a quinaldine red/ammonium molybdate assay by adding a […] of quench C (e.g., to a mixture of 40 μl reaction volume+40 μl stop buffer is then added 120 μl quench C). […] Quench C is a 2:1 ratio of quench A:quench B The reaction is incubated for 5-10 minutes at 23° C., and the absorbance of the phospho-molybdate complex is measured at 540 nm.

Row | IC50 [µM] | SMILES
1 | ≤ 50 | CC(=O)N1N=C(c2cc(F)ccc2F)C[C@@]1(CC[C@@H](N)CF)c1ccccc1 [Compound 2-7, [(1R)-3-[(5S)-1-Acetyl-3-(2,5-difluorophenyl)-5-phenyl-4,5′-dihydro-1H-pyrazol-5-yl]-1-(fluoromethyl)propyl]amine]
2 | ≤ 50 | CC(=O)N1N=C(c2cc(F)ccc2F)C[C@@]1(CC[C@H](N)CF)c1ccccc1 [Compound 2-8, [(1S)-3-[(5S)-1-Acetyl-3-(2,5-difluorophenyl)-5-phenyl-4,5-dihydro-1H-pyrazol-5-yl]-1-(fluoromethyl)propyl]amine]
